How the values were obtained:
factor Xa = factor Xa (Homo sapiens, UniProt P00742); test: Activity towards factor Xa in vitro (initial rate of decomposition of substrate S-2222); type: biochemical; conditions: substrate S-2222 164 μM, room temperature, pH 7.5, 10 min preincubation; Ki calculated from IC50
Experimental: For some compounds depicted in the above examples, there has been measured a constant of activity of these substances towards the factor Xa in vitro—Ki. The measurements were carried out kinetically, in terms of the initial rate of decomposition of the substrate S-2222 by the protein. The measurements were carried out at room temperature in 2 ml rectangular quartz cuvettes. In the reaction there was used a solution: 50 mM Tris-HCl, 150 mM NaCl, 2.5 mM CaCl2, and 0.1% PEG 6000, pH 7.5, factor Xa […], S-2222 164 μM. The standard least-squares method was used for determining Km for certain concentrations of the protein and substrate. Before the reaction, the protein and the active agent in the solution were under thermostatic control for 10 min; then the substrate was added and the reaction was initiated. The reaction rate was measured with a Specord M80 instrument from a change in the light absorption at a wavelength of 405 nm. The IC50 values were determined from the experimentally obtained dependence of the initial rates on the concentration of the inhibitor (active agent). The Ki values were calculated from the concentrations of the protein, substrate, and inhibitors; the IC50 values, by the method described in (1) Jordan, S. P.; Waxman, L.; Smith, D. E.; Vlasik, G. P. Biochemistry 1990, 29, 11095 and (2) Morrison, J. F. Biochim Biophys. Acta 1969, 185, 269.

human blood plasma = test: Prothrombin time in human blood plasma in vitro (Diahem P kit); conditions: 3 min incubation, average of 3 measurements
Experimental: For some compounds depicted in the above examples, there has been measured the concentration of these compounds in human blood plasma, at which the prothrombin time of plasma is twice as much—2PT. The measurements were carried out with the aid of a Diahem P kit (NPO Renam, www.renam.ru) by a method described in the instruction for users of the kit. The active compound was dissolved in a blood plasma provided in the kit and was incubated for 3 min. The measurements were carried out with a Sysmex CA 50 instrument. For each concentration, there were taken 3 measurements and the result was averaged.

Sequence of factor Xa (P00742 235-488 limits assumed): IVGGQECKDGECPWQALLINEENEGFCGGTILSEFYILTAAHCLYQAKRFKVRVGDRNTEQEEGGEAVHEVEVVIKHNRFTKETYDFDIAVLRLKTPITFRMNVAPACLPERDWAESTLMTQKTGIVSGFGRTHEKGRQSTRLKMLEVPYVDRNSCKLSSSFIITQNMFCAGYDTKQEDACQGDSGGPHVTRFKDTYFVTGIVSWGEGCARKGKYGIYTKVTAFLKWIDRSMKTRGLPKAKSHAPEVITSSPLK
Sequence of factor Xa (P00742 41-179 partner limits assumed): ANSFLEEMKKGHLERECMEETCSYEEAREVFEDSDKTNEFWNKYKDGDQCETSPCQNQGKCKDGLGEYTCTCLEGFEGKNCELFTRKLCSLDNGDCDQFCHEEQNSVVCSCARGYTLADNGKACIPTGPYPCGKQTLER

Row | Structure (SMILES) | Ki (factor Xa) [nM] | 2 × PT (concentration at which the prothrombin time of plasma is twice as much) (human blood plasma) [µM]
1 | COc1ccc(NC(=O)c2ccc(N(C)C(C)=N)cc2OCCCN)c(C(=O)Nc2ccc(Cl)cn2)c1 [Example 8, N-(5-chloropyridine-2-yl)2-[4(ethaneimidoylmethylamino)-2-(3-aminopropoxy)phenylcarbonyl-amino]-5-methoxybenzamide] | 0.5 | 0.2
2 | CC(=N)N(C)c1cc(F)c(C(=O)Nc2ccc(Cl)cc2C(=O)Nc2ccc(Cl)cn2)c(OCCCN)c1 [Example 10, N-(5-chloropyridine-2-yl)-2-[2-(3-aminopropoxy)-6-fluoro-4(ethaneamidoylmethylamino)phenylcarbonylamino]-5-chlorobenzamide] | 0.4 | 0.15
3 | CC(=N)N(C)c1cc(F)c(C(=O)Nc2ccc(C)cc2C(=O)Nc2ccc(Cl)cn2)c(OCCCN)c1 [Example 9, N-(5-chloropyridine-2-yl)-2-[4-(ethaneimidoylmethylamino)-2-(3-aminopropoxy)-6-fluorophenylcarbonylamino]-5-methylbenzamide] | 0.4 | 0.15
4 | CC(=N)N(C)c1ccc(C(=O)Nc2ccc(C)cc2C(=O)Nc2ccc(Cl)cn2)c(OCCCNC(C)=O)c1 [Example 13, N-(5-chloropyridine-2-yl)-2-[4-(ethaneimidoylmethylamino)-2-(3-(acetylamino)propoxy)phenylcarbonylamino]-5-methylbenzamide] | 0.5 | 1.5
5 | CC(=N)N(C)c1ccc(C(=O)Nc2ccc(Cl)cc2C(=O)Nc2ccc(Cl)cn2)c(OCCCN)c1 [Example 7, N-(5-chloropyridine-2-yl)-2-[4-(ethaneimidoylmethylamino)-2-(3-aminopropoxy)phenylcarbonylamino]-5-chlorobenzamide] | 0.5 | –
6 | COc1ccc(NC(=O)c2ccc(N(C)C(C)=N)cc2)c(C(=O)Nc2ccc(Cl)cn2)c1 [Example 4, N-(5-chloropyridine-2-yl)-2-[(4-ethaneimidoyl-methyl-aminophenylcarbonyl)amino]5-methoxybenzamide] | 1 | –
7 | CC(=N)N(C)c1ccc(C(=O)Nc2ccc(Cl)cc2C(=O)Nc2ccc(Cl)cn2)c(F)c1 [Example 12] | 1 | 0.09
8 | CC(=N)N(C)c1ccc(C(=O)Nc2ccc(Cl)cc2C(=O)Nc2ccc(Cl)cn2)cc1 [Example 3, N-(5-chloropyridine-2-yl)-2-[(4-ethaneimidoyl-methyl-aminophenylcarbonyl)amino]-5-chlorobenzamide] | 0.3 | –
9 | CC(=N)N(C)c1ccc(C(=O)Nc2ccc(C)cc2C(=O)Nc2ccc(Cl)cn2)cc1 [Example 2, N-(5-chloropyridine-2-yl)-2-[(4-ethaneimidoyl-methyl-aminophenylcarbonyl)amino]5-methylbenzamide] | 0.5 | –
10 | CC(=N)N(C)c1ccc(C(=O)Nc2ccccc2C(=O)Nc2ccc(Cl)cn2)cc1 [Example 1, N-(5-chloropyridine-2-yl)-2-[(4-ethaneimidoyl-methylaminophenylcarbonyl)amino]benzamide] | 2 | –
11 | CC(=N)N(C)c1ccc(C(=O)Nc2ccc(C)cc2C(=O)Nc2ccc(Cl)cn2)c(OCCCN)c1 [Example 6] | 0.5 | 0.2
12 | CC(=N)N(C)c1ccc(C(=O)Nc2ccccc2C(=O)Nc2ccc(Cl)cn2)c(OCCCN)c1 [Example 5, N-(5-chloropyridine-2-yl)-2-[4-(ethaneimidoylmethylamino)-2-(3-aminopropoxy)phenylcarbonyl-amino]benzamide] | 0.5 | 0.2
13 | CC(=N)N(C)c1ccc(C(=O)Nc2ccc(C)cc2C(=O)Nc2ccc(Cl)cn2)c(F)c1 [Example 11] | 0.8 | 0.09

Continued, in another order:

Row | Ki (factor Xa) [nM] | Structure (SMILES) | 2 × PT (concentration at which the prothrombin time of plasma is twice as much) (human blood plasma) [µM]
14 | 0.2 | CNC(=O)N(C)c1ccc(C(=O)Nc2ccc(C)cc2C(=O)Nc2ccc(Cl)cn2)c(OCCCN)c1 [Example 19] | 1.0
15 | 0.5 | CNC(=N)N(C)c1ccc(C(=O)Nc2ccc(C)cc2C(=O)Nc2ccc(Cl)cn2)cc1 [Example 15] | 1.5
16 | 0.2 | CNC(=O)N(C)c1ccc(C(=O)Nc2ccc(Cl)cc2C(=O)Nc2ccc(Cl)cn2)c(OCCCN)c1 [Example 20] | 1.0
17 | 0.15 | CNC(=O)N(C)c1ccc(C(=O)Nc2ccc(Cl)cc2C(=O)Nc2ccc(Cl)cn2)cc1 [Example 17, N-(5-chloropyridine-2-yl)-2-[(4-methyl(methylcarbamoyl)aminophenylcarbonyl)amino]-5-chlorobenzamide] | –
18 | 0.15 | CNC(=O)N(C)c1ccc(C(=O)Nc2ccc(C)cc2C(=O)Nc2ccc(Cl)cn2)cc1 [Example 18] | 3.0
19 | 2 | COC(=N)N(C)c1ccc(C(=O)Nc2ccc(C)cc2C(=O)Nc2ccc(Cl)cn2)cc1 [Example 14, N-(5-chloropyridine-2-yl)-2-[(4-(imino(methoxy)methyl)(methyl)aminophenylcarbonyl)amino]5-methylbenzamide] | –
20 | 0.5 | CNC(=N)N(C)c1ccc(C(=O)Nc2ccc(Cl)cc2C(=O)Nc2ccc(Cl)cn2)cc1 [Example 16] | 1.5

— patent US9708265B2, “Urethanes, ureas, amidines and related inhibitors of factor Xa” (priority 2010, dated 2017)
